These compounds were tested on HCT 116 cells (assay: Viability assay in HCT 116 cells (CellTiter-Glo)). Conditions: 120 h; HCT 116 human colon carcinoma cells, 5 days incubation.
Format: cell-based
Procedure: Viability Assay in HCT 116 Cells
A viability assay was performed using the CellTiter-Glo® Luminescent Cell Viability Assay (see Promega Corporation's Technical Bulletin No. 288, pp. 1-11 [revised February, 2004] which is hereby incorporated by reference in its entirety). This assay is a homogeneous method of determining the number of viable cells in culture based on quantitation of the ATP present, an indicator of metabolically active cells. The assay is designed for use with multiwell formats, making it ideal for automated high-throughput screening (HTS), cell proliferation and cytotoxicity assays. The homogeneous assay procedure involves adding a single reagent (containing luciferase, luciferan substrate, and buffer) directly to cells cultured in serum-supplemented medium. Cell washing, removal of medium and multiple pipetting steps are not required. The system detects as few as 15 cells/well in a 384-well format in 10 minutes after adding reagent and mixing.
The homogeneous “add-mix-measure” format results in cell lysis and generation of a luminescent signal proportional to the amount of ATP present. The amount of ATP is directly proportional to the number of cells present in culture. The above-referenced assay generates a “glow-type” luminescent signal, produced by the luciferase reaction, which has a half-life generally greater than five hours, depending on cell type and medium used. The extended half-life eliminates the need to use reagent injectors and provides flexibility for continuous or batch mode processing of multiple plates. The unique homogeneous format avoids errors that may be introduced by other ATP measurement methods that require multiple steps.
HCT 116 cells (human colon carcinoma, ATCC-No. CCl-247) were cultivated in RPMI 1640 medium with GlutaMAX™ I (cell culture media that contains L-Alanyl-L-Glutamine [a stabilized form/source of L-Glutamine] from Invitrogen, Cat-No. 61870-010), 5% Fetal Calf Serum (FCS, Sigma Cat-No. F4135 (FBS)); 100 Units/ml penicillin/100 μg/ml streptomycin (=Pen/Strep from Invitrogen Cat. No. 15140). For the assay the cells were seeded in 384 well plates, 1000 cells per well, in the same medium. The next day the test compounds were added in various concentrations ranging from 30 μM to 0.0015 μM (10 concentrations, 1:3 diluted). After 5 days the viability assay was performed according to the instructions of the manufacturer. In brief: the cell-plate was equilibrated to room temperature for approximately 30 minutes and then the CellTiter-Glo™ reagent (which contains luciferase, luciferan substrate, and buffer) was added. The contents were carefully mixed for 15 minutes to induce cell lysis. After 45 minutes the luminescent signal was measured in Victor 2, (scanning multiwell spectrophotometer, Wallac).
1st. Day: • Medium: RPMI 1640 with GlutaMAX™ I (Invitrogen, Cat-No. 61870), 5% FCS (Sigma Cat.-No. F4135), Pen/Strep (Invitrogen, Cat No. 15140). • HCT116 (ATCC-No. CCl-247): 1000 cells in 60 μl per well of 384 well plate (Greiner 781098, μClear-plate white) • After seeding incubate plates 24 h at 37° C., 5% CO2 2nd. Day: Induction (Treatment with Compounds, 10 Concentrations):
In order to achieve a final concentration of 30 μM as highest concentration 3.5 μl of 10 mM compound stock solution were added directly to 163 μl media. Then step e) of the dilution procedure described below, was followed.
In order to achieve the second highest to the lowest concentrations, a serial dilution with dilution steps of 1:3 was followed according to the procedure (a-e) as described here below: a) for the second highest concentration add 10 μl of 10 mM stock solution of compound to 20 μl dimethylsulfoxide (DMSO) b) dilute 8×1:3 (always 10 μl to 20 μl DMSO) in this DMSO dilution row (results in 9 wells with concentrations from 3333.3 μM to 0.51 μM) c) dilute each concentration 1:47.6 (3.5 μl compound dilution to 163 μl media) […]
`COc1ccc2cc(Nc3cc(C)[nH]n3)nc(Oc3ccc(Cl)cc3)c2c1` [Example 77, [1-(4-Chloro-phenoxy)-7-methoxy-isoquinolin-3-yl]-(5-methyl-1H-pyrazol-3-yl)-amine] showed an IC50 of 1.94 µM.
`Cc1cc(Nc2cc3ccccc3c(OCc3ccccc3)n2)n[nH]1` [Example 12, (1-Benzyloxy-isoquinolin-3-yl)-(5-methyl-1H-pyrazol-3-yl)-amine] gave an IC50 of 3.32 µM.
Compound `COc1cccc2c(Oc3ccc(C)cc3)nc(Nc3cc(C)[nH]n3)cc12` [Example 67, (5-Methyl-1H-pyrazol-3-yl)-(1-p-tolyloxy-5-methoxy-isoquinolin-3-yl)-amine] has an IC50 of 1.37 µM.
Work on `COc1ccc2c(OC(C)C)nc(Nc3cc(C)[nH]n3)cc2c1` [Example 56, (1-Isopropoxy-6-methoxy-isoquinolin-3-yl)-(5-methyl-1H-pyrazol-3-yl)-amine] yielded an IC50 of 0.636 µM.
`Cc1cc(Nc2cc3ccccc3c(-c3cnn(C)c3)n2)n[nH]1` [Example 164, (5-Methyl-1H-pyrazol-3-yl)-[1-(1-methyl-1H-pyrazol-4-yl)-isoquinolin-3-yl]-amine] showed an IC50 of 5.31 µM.
Work on `COc1cc2cc(Nc3cc(C)[nH]n3)nc(OC3CCC3)c2cc1OC` [Example 125, (1-Cyclobutoxy-6,7-dimethoxy-isoquinolin-3-yl)-(5-methyl-1H-pyrazol-3-yl)-amine] yielded an IC50 of 0.51 µM.
Compound `COc1cccc(Sc2nc(Nc3cc(C)[nH]n3)cc3ccccc23)c1` [Example 306, [1-(3-Methoxy-phenylsulfanyl)-isoquinolin-3-yl]-(5-methyl-1H-pyrazol-3-yl)-amine] has an IC50 of 1.57 µM.
`FC(F)(F)c1ccc(-c2nc(Nc3cc[nH]n3)cc3ccccc23)cc1` [Example 220, (1H-Pyrazol-3-yl)-[1-(4-trifluoromethyl-phenyl)-isoquinolin-3-yl]-amine] showed an IC50 of 3.17 µM.
For `COc1cccc(-c2nc(Nc3cc(C)[nH]n3)cc3cc(OCCN4CCOCC4)ccc23)c1` [Example 300, [1-(3-Methoxy-phenyl)-6-(2-morpholin-4-yl-ethoxy)-isoquinolin-3-yl]-(5-methyl-1H-pyrazol-3-yl)-amine], the IC50 was 1.53 µM.
Work on `Cc1cc(Nc2cc3ccccc3c(OC3CCCCC3)n2)n[nH]1` [Example 33, (1-Cyclohexyloxy-isoquinolin-3-yl)-(5-methyl-1H-pyrazol-3-yl)-amine] yielded an IC50 of 3.24 µM.
Work on `COc1ccc2c(-c3ccc(C(C)=O)cc3)nc(Nc3cc[nH]n3)cc2c1` [Example 252, 1-{4-[6-Methoxy-3-(1H-pyrazol-3-ylamino)-isoquinolin-1-yl]-phenyl}-ethanone] yielded an IC50 of 3.87 µM.
Work on `COc1ccc2c(Nc3ccncc3)nc(Nc3cc(C)[nH]n3)cc2c1` [Example 288, 6-Methoxy-N^3-(5-methyl-1H-pyrazol-3-yl)-N^1-pyridin-4-yl-isoquinoline-1,3-diamine] yielded an IC50 of 1.29 µM.
`COCCCNC(=O)c1ccc2c(-c3ccc(F)cc3F)nc(Nc3cc(C)[nH]n3)cc2c1` [Example 302, 1-(2,4-Difluoro-phenyl)-3-(5-methyl-1H-pyrazol-3-ylamino)-isoquinoline-6-carboxylic acid (3-methoxy-propyl)-amide] gave an IC50 of 3.07 µM.
In the case of `Cc1cc(Nc2cc3ccccc3c(-c3ccccc3)n2)n[nH]1` [Example 131, (5-Methyl-1H-pyrazol-3-yl)-(1-phenyl-isoquinolin-3-yl)-amine], the IC50 is reported as 3.93 µM.
In the case of `Cc1cc(Nc2cc3ccccc3c(Oc3ccc(Cl)cc3)n2)n[nH]1` [Example 16, [1-(4-Chloro-phenoxy)-isoquinolin-3-yl]-(5-methyl-1H-pyrazol-3-yl)-amine], the IC50 is reported as 1.93 µM.
`COc1ccc2c(Oc3ccc(C#N)cc3)nc(Nc3cc(C)[nH]n3)cc2c1` [Example 39, 4-[3-(5-Methyl-1H-pyrazol-3-ylamino)-6-methoxy-isoquinolin-1-yloxy]-benzonitrile] was tested, and the IC50 was 1.38 µM.
Work on `Cc1cc(Nc2cc3ccccc3c(Oc3ccccc3)n2)n[nH]1` [Example 11, (5-Methyl-1H-pyrazol-3-yl)-(1-phenoxy-isoquinolin-3-yl)-amine] yielded an IC50 of 1.83 µM.
In the case of `Cc1cc(Nc2cc3ccccc3c(Oc3cccc(C#N)c3)n2)n[nH]1` [Example 28, 3-[3-(5-Methyl-1H-pyrazol-3-ylamino)-isoquinolin-1-yloxy]-benzonitrile], the IC50 is reported as 0.999 µM.
Work on `Cc1cc(Nc2cc3ccccc3c(Oc3ccccc3C)n2)n[nH]1` [Example 21, (5-Methyl-1H-pyrazol-3-yl)-(1-o-tolyloxy-isoquinolin-3-yl)-amine] yielded an IC50 of 5.67 µM.
With `Cc1cc(Nc2cc3ccccc3c(-c3csc4ccccc34)n2)n[nH]1` [Example 159, (1-Benzo[b]thiophen-3-yl-isoquinolin-3-yl)-(5-methyl-1H-pyrazol-3-yl)-amine] the IC50 was 1.9 µM.
`COc1ccc2c(C(=O)NCC3CC3)nc(Nc3cc(C)[nH]n3)cc2c1` [Example 318, 6-Methoxy-3-(5-methyl-1H-pyrazol-3-ylamino)-isoquinoline-1-carboxylic acid cyclopropylmethyl-amide] was tested, and the IC50 was 3.11 µM.
`COc1ccc2c(-c3ccc(C)cc3)nc(Nc3cc[nH]n3)cc2c1` [Example 263, (6-Methoxy-1-p-tolyl-isoquinolin-3-yl)-(1H-pyrazol-3-yl)-amine] showed an IC50 of 1.54 µM.
`COc1ccc2c(-c3cn[nH]c3)nc(Nc3cc(C)[nH]n3)cc2c1` [Example 194, (5-Methyl-1H-pyrazol-3-yl)-[1-(1H-pyrazol-4-yl)-6-methoxy-isoquinolin-3-yl]-amine] was tested, and the IC50 was 3.44 µM.
With `COc1cccc2c(-c3ccccc3)nc(Nc3cc(C)[nH]n3)cc12` [Example 202, (5-Methoxy-1-phenyl-isoquinolin-3-yl)-(5-methyl-1H-pyrazol-3-yl)-amine] the IC50 was 1.41 µM.
With `COc1ccc2c(Oc3ccc(F)cc3)nc(Nc3cc(C)[nH]n3)cc2c1OC` [Example 94, [1-(4-Fluoro-phenoxy)-5,6-dimethoxy-isoquinolin-3-yl]-(5-methyl-1H-pyrazol-3-yl)-amine] the IC50 was 2.54 µM.
`COc1ccc2c(OCCN3CCOCC3)nc(Nc3cc(C)[nH]n3)cc2c1` [Example 53, (5-Methyl-1H-pyrazol-3-yl)-[1-(2-morpholin-4-yl-ethoxy)-6-methoxy-isoquinolin-3-yl]-amine] showed an IC50 of 3.5 µM.
Compound `Cc1cc(Nc2cc3ccccc3c(Nc3cccc(Cl)c3)n2)n[nH]1` [Example 294, N^1-(3-Chloro-phenyl)-N^3-(5-methyl-1H-pyrazol-3-yl)-isoquinoline-1,3-diamine] has an IC50 of 1.79 µM.
For `Cc1cc(Nc2cc3ccccc3c(Sc3ccc(F)cc3)n2)n[nH]1` [Example 312, [1-(4-Fluoro-phenylsulfanyl)-isoquinolin-3-yl]-(5-methyl-1H-pyrazol-3-yl)-amine], the IC50 was 3.76 µM.
For `Cc1cc(Nc2cc3ccccc3c(-c3ccc(Cl)cc3)n2)n[nH]1` [Example 140, [1-(4-Chloro-phenyl)-isoquinolin-3-yl]-(5-methyl-1H-pyrazol-3-yl)-amine], the IC50 was 2.61 µM.

Source: patent US7572809B2, “Isoquinoline aminopyrazole derivatives” (Hoffmann-La Roche Inc., priority 2005, dated 2009)
